Consider seven compounds from patent US20230250131A1, “HYDROXYSTEROID COMPOUNDS” (Epirium Bio Inc., priority 2022, published 2023).

This test has as its system PGC-1α. As to the kind of experiment: PGC-1α assay in differentiated C2C12 cells (ELISA-type antibody detection, absorbance at 450 nm). In kind it is cell-based. The conditions noted are these: each compound tested at 0.01 nM, DMSO control as 100%; for activity at 10 pM: Mus musculus, C2C12, C2C12 myotubes. As for the experimental part: The compounds of Table 2 were synthesized and tested in a PGC-1α assay.
Culture conditions: DMEM containing 25 mM glucose with 10% FBS supplementation; grown at 37° C. and 5% CO2.
Assay Conditions: C2C12 cells were cultured in DMEM supplemented in 10% FBS up to 80% confluence. The cells were further trypsinized and seeded into a 96 well plate at a density of 5000 cells/well (well volume—100 μL) (Day 0). Following attachment, the cells were allowed to reach 80-90% confluence in the plate (typically 48 hours post seeding) and further differentiated using DMEM+2% Horse Serum (200 μL/well). The media was changed every day or at least every alternate day for 5 days to allow myoblasts to differentiate into myotubes. On day 7 (post seeding), the cells were treated with standards and test compounds for PGC-1α assay.
PGC-1α assay: For the detection of PGC-1α, the cells were incubated with […] primary antibody (Merck, WH10010891M3) in PBS-T containing 5% BSA at 4° C. overnight. The cells were then washed three times with PBS-T for 5 minutes and incubated with 1:1000 dilution secondary antibody (Anti-rabbit IgG, HRP-linked Antibody, Cell Signaling) in PBS-T with […] for 1 hour at RT. Cells were washed three times with PBS-T for 5 minutes The cells were incubated with 100 μl TMB substrate solution for 30 minutes and the reaction was stopped with 100 μl of 2N H2SO4. Then the plate was read at 450 nm using ELISA plate reader and absorbance recorded. […] was calculated using DMSO control as 100%. (For plate optical density calculations, a background correction was taken at 540 nm). Each compound was tested at a concentration of 0.01 nM.
(An ELISA detects its analyte on a solid surface through an enzyme-linked reagent.)

Where [1] appears, read: average over experiments, read-out: Single point PGC1-Alpha Assay: Average Activity (%).
Setting [2] is: individual experiments (Exp. 1-3), read-out: Single point PGC1-Alpha Assay: Activity (%).

Where “and” joins values, the source holds several entries; their conditions need not be identical. Equal values may be shown once. Read-outs that look alike come from different tables or passages of the source.

Turning to `CCN1C(=O)CC[C@@]2(C)C1=CCC1C2[C@@](C)(O)C[C@@]2(C)C1CC[C@@H]2C(C)=O` (some centres unmarked), the activity at 10 pM is 118% under setting [1] and 118% under setting [2].
For the compound `CCCN1C(=O)CC[C@@]2(C)C1=CCC1C2[C@@H](O)C[C@@]2(C)C1CC[C@@H]2C(C)=O` (some centres unmarked), the activity at 10 pM was determined as 109% under setting [1] and 109% under setting [2].
Take `CCN1C(=O)CC[C@@]2(C)C1=CCC1C3CCC(C4(C)OCCO4)[C@@]3(C)C[C@](C)(O)C12` (some centres unmarked): the activity at 10 pM under setting [1] amounted to 119% and the activity at 10 pM under setting [2] came out at 119%.
`CCN1C(=O)CC[C@@]2(C)C1=CCC1C2[C@@H](O)C[C@@]2(C)C1CC[C@@H]2C(C)=O` (some centres unmarked): the activity at 10 pM came out at 116% under setting [1] and 116% under setting [2].
`CCN1C(=O)CC[C@@]2(C)C1=CCC1C2[C@@](C)(O)C[C@@]2(C)C1CC[C@@H]2C(C)(C)O` (some centres unmarked): the activity at 10 pM came out at 126% under setting [1] and 126% under setting [2].
Regarding `[2H][C@]1(O)C[C@@]2(C)C(CC[C@@H]2C(C)=O)C2CC=C3N(CC)C(=O)CC[C@]3(C)C21` (some centres unmarked), under “C2C12 myotubes, individual experiments (Exp. 1-3), 10 pM”, the “Single point PGC1-Alpha Assay: Activity (%)” value was 137% and 112% and 131%. In addition, under setting [1], the activity at 10 pM worked out at 127%.
Take `CCN1C(=O)CC[C@@]2(C)C1=CCC1C2[C@@H](O)C[C@@]2(C)C1CC[C@@H]2C(C)O` (some centres unmarked): the activity at 10 pM under setting [1] was 94% and the activity at 10 pM under setting [2] stood at 94%.
